Reference: ChEMBL document CHEMBL1125558 (J Med Chem, 1992)

How the values were obtained:
Assay type in all cases: functional
Rattus norvegicus [1] = test: Percent response at dose 2.5 mg/kg evaluated by dose-response tests in trained rats(post injection interval 15 min)
Rattus norvegicus [2] = test: Percent response at dose 5 mg/kg evaluated by dose-response tests in trained rats(post injection interval 15 min)
Rattus norvegicus [3] = test: Percent response at dose 0.62 mg/kg evaluated by dose-response tests in trained rats(post injection interval 15 min)
Rattus norvegicus [4] = test: Percent response at dose 1.25 mg/kg evaluated by dose-response tests in trained rats(post injection interval 15 min)
Rattus norvegicus [5] = test: Percent response at dose 10 mg/kg evaluated by dose-response tests in trained rats(post injection interval 15 min)
Rattus norvegicus [6] = test: Percent response at dose 10 mg/kg evaluated by temporal tests in trained rats(post injection interval 120 min)
Rattus norvegicus [7] = test: Percent response at dose 10 mg/kg evaluated by temporal tests in trained rats(post injection interval 15 min)
Rattus norvegicus [8] = test: Percent response at dose 10 mg/kg evaluated by temporal tests in trained rats(post injection interval 30 min)
Rattus norvegicus [9] = test: Percent response at dose 10 mg/kg evaluated by temporal tests in trained rats(post injection interval 5 min)
Rattus norvegicus [10] = test: Percent response at dose 10 mg/kg evaluated by temporal tests in trained rats(post injection interval 60 min)
Rattus norvegicus [11] = test: Number of animals(n) completing 20 responses on either lever out of the number of animals tested (N) at dose 0.62 mg/kg evaluated by dose-response tests in trained rats(post injection interval 15 min); n/N=7/7
Rattus norvegicus [12] = test: Number of animals(n) completing 20 responses on either lever out of the number of animals tested (N) at dose 1.25 mg/kg evaluated by dose-response tests in trained rats(post injection interval 15 min); n/N=7/7
Rattus norvegicus [13] = test: Number of animals(n) completing 20 responses on either lever out of the number of animals tested (N) at dose 10 mg/kg evaluated by dose-response tests in trained rats(post injection interval 15 min); n/N=7/7
Rattus norvegicus [14] = test: Number of animals(n) completing 20 responses on either lever out of the number of animals tested (N) at dose 10 mg/kg evaluated by temporal tests in trained rats(post injection interval 15 min); n/N=7/7
Rattus norvegicus [15] = test: Number of animals(n) completing 20 responses on either lever out of the number of animals tested (N) at dose 10 mg/kg evaluated by temporal tests in trained rats(post injection interval 30 min); n/N=7/7
Rattus norvegicus [16] = test: Number of animals(n) completing 20 responses on either lever out of the number of animals tested (N) at dose 10 mg/kg evaluated by temporal tests in trained rats(post injection interval 5 min); n/N=7/7
Rattus norvegicus [17] = test: Number of animals(n) completing 20 responses on either lever out of the number of animals tested (N) at dose 10 mg/kg evaluated by temporal tests in trained rats(post injection interval 60 min); n/N=7/7
Rattus norvegicus [18] = test: Number of animals(n) completing 20 responses on either lever out of the number of animals tested (N) at dose 2.5 mg/kg evaluated by dose-response tests in trained rats(post injection interval 15 min); n/N=7/7
Rattus norvegicus [19] = test: Number of animals(n) completing 20 responses on either lever out of the number of animals tested (N) at dose 5 mg/kg evaluated by dose-response tests in trained rats; n/N=7/7
Rattus norvegicus [20] = test: Number of animals(n) completing 20 responses on either lever out of the number of animals tested (N) at dose 10 mg/kg evaluated by temporal tests in trained rats(post injection interval 120 min); n/N=7/7
Rattus norvegicus [21] = test: Mean responses per minute at dose 10 mg/kg evaluated by dose-response tests in trained rats(post injection interval 15 min)
Rattus norvegicus [22] = test: Mean responses per minute at dose 10 mg/kg evaluated by temporal tests in trained rats(post injection interval 15 min)
Rattus norvegicus [23] = test: Mean responses per minute at dose 10 mg/kg evaluated by temporal tests in trained rats(post injection interval 30 min)
Rattus norvegicus [24] = test: Mean responses per minute at dose 10 mg/kg evaluated by temporal tests in trained rats(post injection interval 5 min)
Rattus norvegicus [25] = test: Mean responses per minute at dose 10 mg/kg evaluated by temporal tests in trained rats(post injection interval 60 min)
Rattus norvegicus [26] = test: Mean responses per minute at dose 2.5 mg/kg evaluated by dose-response tests in trained rats(post injection interval 15 min)
Rattus norvegicus [27] = test: Mean responses per minute at dose 5 mg/kg evaluated by dose-response tests in trained rats(post injection interval 15 min)
Rattus norvegicus [28] = test: Mean responses per minute at dose 0.62 mg/kg evaluated by dose-response tests in trained rats(post injection interval 15 min)
Rattus norvegicus [29] = test: Mean responses per minute at dose 1.25 mg/kg evaluated by dose-response tests in trained rats(post injection interval 15 min)
Rattus norvegicus [30] = test: Mean responses per minute at dose 10 mg/kg evaluated by temporal tests in trained rats(post injection interval 120 min)

COC(=O)[C@H]1[C@@H](OC(=O)c2ccccc2)C[C@@H]2CC[C@H]1N2C [COCAINE]
Drug response (Rattus norvegicus [1]): 61%
Drug response (Rattus norvegicus [2]): 98%
Drug response (Rattus norvegicus [3]): 6%
Drug response (Rattus norvegicus [4]): 44%
Drug response (Rattus norvegicus [5]): 99%
Drug response (Rattus norvegicus [6]): 31%
Drug response (Rattus norvegicus [7]): 99%
Drug response (Rattus norvegicus [8]): 100%
Drug response (Rattus norvegicus [9]): 85%
Drug response (Rattus norvegicus [10]): 81%
No. resp animals / Total (Rattus norvegicus [11]): 7 / 7
n/N (Rattus norvegicus [12]): 7 / 7
No. resp animals / Total (Rattus norvegicus [13]): 7 / 7
No. resp animals / Total (Rattus norvegicus [14]): 7 / 7
No. resp animals / Total (Rattus norvegicus [15]): 7 / 7
No. resp animals / Total (Rattus norvegicus [16]): 7 / 7
No. resp animals / Total (Rattus norvegicus [17]): 7 / 7
No. resp animals / Total (Rattus norvegicus [18]): 7 / 7
No. resp animals / Total (Rattus norvegicus [19]): 7 / 7
No. resp animals / Total (Rattus norvegicus [20]): 7 / 7
Rate response (Rattus norvegicus [21]): 76 min⁻¹
Rate response (Rattus norvegicus [22]): 76 min⁻¹
Rate response (Rattus norvegicus [23]): 61 min⁻¹
Rate response (Rattus norvegicus [24]): 28 min⁻¹
Rate response (Rattus norvegicus [25]): 23 min⁻¹
Rate response (Rattus norvegicus [26]): 32 min⁻¹
Rate response (Rattus norvegicus [27]): 89 min⁻¹
Rate response (Rattus norvegicus [28]): 27 min⁻¹
Rate response (Rattus norvegicus [29]): 21 min⁻¹
Rate response (Rattus norvegicus [30]): 28 min⁻¹
